Experimental findings from US12234236B1, “GLP-1R agonist and therapeutic method thereof” (Ascletis Pharma (China) Co., Limited, priority 2023, dated 2025) are described below.

Data set [1] in a line: Single-dose subcutaneous injection pharmacokinetic study in SD rats. In kind it is in vivo. To be noted: Sprague-Dawley, rat, blood, sc, male SD rats, 30 mg/kg, vehicle 80% MCT + 20% benzyl alcohol, read-out: AUC0-696h. On the procedure: Pharmacokinetic Studies in Sprague-Dawley (SD) Rats
1. Single-Dose Subcutaneous Injection Pharmacokinetic Studies Sprague-Dawley (SD) Rats
Pharmacokinetic (PK) studies after a single-dose subcutaneous injection for compounds: 1, 13, 18, 19, 20, 21 and orforglipron. Protocol: Animals: Male Sprague-Dawley (SD) rats; Vehicle: 80% MCT (Medium-Chain Triglycerides)+20% benzyl alcohol; Dose: 30 mg/kg in the vehicle; Dosing concentration: 30 mg/mL; Dosing volume: 1 mL/kg; Administration site: Subcutaneous injection at the back of the animal. Blood sampling time points: pre-dose, 1 h, 2 h, 8 h, 24 h, 48 h, 72 h, 96 h, 120 h, 144 h, 216 h, 312 h, 480 h, 696 h. Blood samples were collected, and the blood samples were analyzed by LC-MS/MS.

Data set [2] in a line: Single-dose oral administration pharmacokinetic study in SD rats. Format: in vivo. To be noted: Sprague-Dawley, rat, whole blood, 5 mg/kg; for AUC(0-t): read-out: AUC0-48h. How it is done:
2. Single-Dose Oral Administration Pharmacokinetic (PK) Studies in Sprague-Dawley (SD) Rats
Pharmacokinetic (PK) studies after a single-dose oral administration for compounds. Protocol: Animals: Sprague-Dawley (SD) rats; Solvent: Solutol: PEG400: Tween80: Saline=10:40:2:48 (v/v/v/v); Dose: 5 mg/kg; Dosing concentration: 0.5 mg/mL in the solvent; Dosing volume: 10 mL/kg; Blood sampling time points: pre-dose, 0.25 h, 0.5 h, 1 h, 2 h, 3 h, 4 h, 8 h, 12 h, 18, 24 h, 32 h, 40 h, 48 h. Sample Collection: At each time point, approximately 0.15 mL of blood was drawn from the jugular vein sinus, and the collected whole blood was placed in an anticoagulant tube containing EDTA-K2. After collecting blood samples, they were processed with protein precipitation and then analyzed by LC-MS/MS.

The target of data set [3] is T1, hGLP-1R (Homo sapiens, UniProt P43220).
T1 construct: expressed in transfected cells; host or cells: Flp-In-293 (HEK293-derived) cells carrying GLP1R
The data set can be described thus: hGLP-1R agonist cAMP stimulation assay. In kind it is cell-based. To be noted: Flp-In-293-GLP1R cells, 30 minutes at 37° C. How it is done:
1. Cell Line and Reagent Preparation
• 1) Cell line: Flp-In-293-GLP1R • 2) Medium: DMEM+10% FBS+1×Penicillin-Streptomycin+200 μg/mL HB • 3) Test buffer: 1×HBSS+20 mM HEPES+0.1% BSA+500 μM IBMX 2. Agonist Test • a) Flpin-293-GLP1R cells were incubated in a 384-well assay plate (6007680-50, PB) using a complete medium with 2,000 cells per well. • b) Prepared a 4× […] working solution with assay buffer. • c) Added 5 μL of 4× Compound Working Solution to the cell plate and incubated at 37° C. for 30 minutes. • d) Diluted the Eu-cAMP tracer (1/50) with lysis buffer and added 10 μl/well to the assay plate. • e) Diluted Ulight-anti-cAMP (1/150) with lysis buffer and added 10 μl/well to the assay plate. • f) The assay plate was incubated at constant temperature for 1 hour. • g) Read the plate on Envision 2105 plate reader at […]. 3.

T1 sequence (P43220 24-463): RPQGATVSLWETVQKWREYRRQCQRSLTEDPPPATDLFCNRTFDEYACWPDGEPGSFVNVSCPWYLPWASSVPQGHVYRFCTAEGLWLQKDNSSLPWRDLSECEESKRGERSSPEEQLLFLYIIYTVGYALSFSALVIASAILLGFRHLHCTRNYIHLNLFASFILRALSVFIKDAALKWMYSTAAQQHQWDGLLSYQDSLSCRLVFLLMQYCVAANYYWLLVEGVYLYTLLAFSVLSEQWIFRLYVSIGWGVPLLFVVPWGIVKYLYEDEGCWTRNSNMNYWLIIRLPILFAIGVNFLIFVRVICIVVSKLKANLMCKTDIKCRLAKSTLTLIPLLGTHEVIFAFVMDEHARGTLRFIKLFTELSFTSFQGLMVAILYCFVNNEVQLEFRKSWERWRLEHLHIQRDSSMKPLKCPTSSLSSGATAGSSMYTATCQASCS

As for `Cc1cc(-n2nc3c(c2-n2ccn(-c4ccc5c(cnn5C)c4F)c2=O)[C@H](C)N(C(=O)c2cc4cc([C@H]5CCOC(C)(C)C5)ccc4n2[C@@]2(c4noc(=O)[nH]4)C[C@@H]2C)CC3)cc(C)c1F` [Orforglipron, orforglipron, reference compound], the AUC(0-t) in data set [1] was 5390 ng·h/mL. In data set [2], the Cmax (commonly the maximum level reached in the sampled fluid or tissue) worked out at 799 ng/mL and the AUC(0-t) is 7220 ng·h/mL. On to `Cc1cc(-n2nc3c(c2-n2ccn(-c4ccc(CP5(=O)CCCC5)cc4)c2=O)[C@H](C)N(C(=O)c2cc4cc(C5CCOCC5)ccc4n2[C@@]2(c4noc(=O)[nH]4)C[C@@H]2C)CC3)cc(C)c1F` [Compound 82], for which the EC50 – broadly, the midpoint of the concentration-response curve – in data set [3] worked out at 0.011 nM. Still for that read-out and setting: the value for `Cc1cc(-n2nc3c(c2-n2ccn(-c4ccc5c(c4F)CCS(=O)(=O)N5C)c2=O)[C@H](C)N(C(=O)c2cc4cc(C5CCOCC5)ccc4n2[C@@]2(c4noc(=O)[nH]4)C[C@@H]2C)CC3)cc(C)c1F` [Compound 35] was 0.025 nM. On the same count and under the same terms, the result for `Cc1cc(-n2nc3c(c2-n2ccn(-c4ccc(NS(C)(=O)=O)cc4)c2=O)C2CCC(C3)N2C(=O)c2cc3nc(C4CCOCC4)ccc3n2[C@@]2(c3noc(=O)[nH]3)C[C@@H]2C)cc(C)c1F` (stereo partly drawn) [Compound 24] reads 0.868 nM.

As to `Cc1cc(-n2nc3c(c2-n2ccn(-c4ccc5c(cnn5C5CCC5)c4F)c2=O)[C@H](C)N(C(=O)c2cc4cc(C5CCOCC5)ccc4n2[C@@]2(c4noc(=O)[nH]4)C[C@@H]2C)CC3)cc(C)c1F` [Compound 20], the EC50 in data set [3] was determined as 0.018 nM. For the same compound, in data set [1], the AUC(0-t) is 77700 ng·h/mL. In data set [2], the peak level (Cmax) was 1900 ng/mL and the AUC(0-t) was 17000 ng·h/mL.

For `Cc1cc(-n2nc3c(c2-n2ccn(-c4ccc5c(c4F)COB5O)c2=O)[C@H](C)N(C(=O)c2cc4cc(C5CCOC(C)(C)C5)ccc4n2[C@@]2(c4noc(=O)[nH]4)C[C@@H]2C)CC3)cc(C)c1F` (stereo partly drawn) [Compound 29], the midpoint of the response in data set [3], the EC50, lay at 0.063 nM. In turn, `Cc1cc(-n2nc3c(c2-n2ccn(-c4ccc5c(cnn5C5CC5)c4F)c2=O)[C@H](C)N(C(=O)c2cc4nc(C5CCOCC5)ccc4n2[C@@]2(c4noc(=O)[nH]4)C[C@@H]2C)CC3)cc(C)c1F` (single isomer, unassigned) [Compound 19] came in with an EC50 in data set [3] of 0.012 nM. In data set [1], the AUC(0-t) came to 234000 ng·h/mL. Also, in data set [2], the Cmax came to 4460 ng/mL and the AUC(0-t) was determined as 60000 ng·h/mL.

The compound `Cc1cc(-n2nc3c(c2-n2ccn(-c4ccc5c(c4)CCC(=O)N5C)c2=O)[C@H](C)N(C(=O)c2cc4cc(C5CCOCC5)ccc4n2[C@@]2(c4noc(=O)[nH]4)C[C@@H]2C)CC3)cc(C)c1F` [Compound 78] came in with an EC50 in data set [3] of 0.012 nM.

In data set [3], `Cc1cc(-n2nc3c(c2-n2ccn(-c4ccc(CP(=O)(C5CC5)C5CC5)cc4)c2=O)[C@H](C)N(C(=O)c2cc4cc(C5CCOCC5)ccc4n2[C@@]2(c4noc(=O)[nH]4)C[C@@H]2C)CC3)cc(C)c1F` [Compound 81] yielded an EC50 of 0.042 nM. Same read-out and setting: the value for `Cc1cc(-n2nc3c(c2-n2ccn(-c4ccc5c(c4)NCCS5(=O)=O)c2=O)[C@H](C)N(C(=O)c2cc4cc(C5CCOCC5)ccc4n2[C@@]2(c4noc(=O)[nH]4)C[C@@H]2C)CC3)cc(C)c1F` [Compound 55] was 0.15 nM. `Cc1cc(-n2nc3c(c2-n2ccn(-c4ccc5c(cnn5CC5CC5)c4F)c2=O)[C@H](C)N(C(=O)c2cc4cc([C@@H]5CCOC(C)(C)C5)ccc4n2[C@@]2(c4noc(=O)[nH]4)C[C@@H]2C)CC3)cc(C)c1F` [Compound 18]: the response in data set [3] was half-maximal at 0.265 nM (EC50). In data set [1], the AUC(0-t) was determined as 51200 ng·h/mL.

As for `Cc1cc(-n2nc3c(c2-n2ccn(-c4ccc5c(cnn5C5CC5)c4F)c2=O)[C@H](C)N(C(=O)c2cc4cc(C5CCOCC5)cnc4n2[C@@]2(c4noc(=O)[nH]4)C[C@@H]2C)CC3)cc(C)c1F` [Compound 70], in data set [3], the EC50 amounted to 0.064 nM.

In turn, `Cc1cc(-n2nc3c(c2-n2ccn(-c4ccc5c(cnn5C5CC5)c4F)c2=O)[C@H](C)N(C(=O)c2cc4nc(C5CCOCC5)ccc4n2[C@@]2(c4noc(=O)[nH]4)C[C@@H]2C)CC3)cc(C)c1F` [Compound 65] came in with an EC50 in data set [3] of 0.092 nM. Further, in data set [2], the concentration peaked (Cmax) at 11000 ng/mL and the AUC(0-t) was found to be 71800 ng·h/mL. On to `Cc1cc(-n2nc3c(c2-n2ccn(-c4ccc5c(c4)CS(=O)(=O)N5C)c2=O)[C@H](C)N(C(=O)c2cc4cc(C5CCOCC5)ccc4n2[C@@]2(c4noc(=O)[nH]4)C[C@@H]2C)CC3)cc(C)c1F` [Compound 76], for which the midpoint of the response in data set [3], the EC50, lay at 0.019 nM. With `Cc1cc(-n2nc3c(c2-n2ccn(-c4ccc5c(c4F)CCS(=O)(=O)N5)c2=O)[C@H](C)N(C(=O)c2cc4cc(C5CCOCC5)ccc4n2[C@@]2(c4noc(=O)[nH]4)C[C@@H]2C)CC3)cc(C)c1F` [Compound 36], the response in data set [3] was half-maximal at 0.05 nM (EC50). `CCOP(=O)(Cc1ccc(-n2ccn(-c3c4c(nn3-c3cc(C)c(F)c(C)c3)CCN(C(=O)c3cc5cc(C6CCOCC6)ccc5n3[C@@]3(c5noc(=O)[nH]5)C[C@@H]3C)[C@H]4C)c2=O)cc1)OCC` [Compound 84]: in data set [3], the EC50 turned out to be 0.08 nM.

Regarding `Cc1cc(-n2nc3c(c2-n2ccn(-c4ccc5c(c4F)COB5O)c2=O)[C@H](C)N(C(=O)c2cc4cc(C5CCOCC5)ccc4n2[C@@]2(c4noc(=O)[nH]4)C[C@@H]2C)CC3)cc(C)c1F` [Compound 79], a half-maximal effect in data set [3] (EC50) was put at 0.171 nM. `Cc1cc(-n2nc3c(c2-n2ccn(-c4ccc5c(cnn5C5CC5)c4F)c2=O)[C@H](C)N(C(=O)c2cc4cc([C@H]5CCOC(C)(C)C5)ccc4n2[C@@]2(c4noc(=O)[nH]4)C[C@@H]2C)CC3)cc(C)c1F` [Compound 1] had a concentration for a half-maximal effect (EC50) in data set [3] of 0.094 nM. Also, in data set [1], the AUC(0-t) is 60300 ng·h/mL.

`Cc1cc(-n2nc3c(c2-n2ccn(-c4ccc5c(cnn5C5CC5)c4F)c2=O)[C@H](C)N(C(=O)c2cc4cc(C5CCOCC5)ncc4n2[C@@]2(c4noc(=O)[nH]4)C[C@@H]2C)CC3)cc(C)c1F` [Compound 66]: it took 0.014 nM to reach a half-maximal effect in data set [3] (EC50).

With `Cc1cc(-n2nc3c(c2-n2ccn(-c4ccc5c(c4F)CS(=O)(=O)N5)c2=O)[C@H](C)N(C(=O)c2cc4cc(C5CCOCC5)ccc4n2[C@@]2(c4noc(=O)[nH]4)C[C@@H]2C)CC3)cc(C)c1F` [Compound 37], the EC50 in data set [3] was 0.06 nM. In data set [3], `CCP(=O)(CC)Cc1ccc(-n2ccn(-c3c4c(nn3-c3cc(C)c(F)c(C)c3)CCN(C(=O)c3cc5cc(C6CCOCC6)ccc5n3[C@@]3(c5noc(=O)[nH]5)C[C@@H]3C)[C@H]4C)c2=O)cc1` [Compound 80] gave a concentration giving a half-maximal response (EC50) of 0.038 nM.

Turning to `Cc1cc(-n2nc3c(c2-n2ccn(-c4ccc(CP(C)(C)=O)cc4)c2=O)[C@H](C)N(C(=O)c2cc4cc(C5CCOCC5)ccc4n2[C@@]2(c4noc(=O)[nH]4)C[C@@H]2C)CC3)cc(C)c1F` [Compound 50], in data set [3], the response was half-maximal at 0.028 nM (EC50). As for `Cc1cc(-n2nc3c(c2-n2ccn(-c4ccc5c(cnn5CC5CC5)c4F)c2=O)[C@H](C)N(C(=O)c2cc4cc(C5CCOCC5)ccc4n2[C@@]2(c4noc(=O)[nH]4)C[C@@H]2C)CC3)cc(C)c1F` [Compound 21], the EC50 in data set [3] is 0.044 nM. Moreover, the AUC(0-t) in data set [1] amounted to 61500 ng·h/mL. The corresponding values for `Cc1cc(-n2nc3c(c2-n2ccn(-c4ccc5c(cnn5CC5CC5)c4F)c2=O)[C@H](C)N(C(=O)c2cc4cc(C5CCOC(C)(C)C5)ccc4n2[C@@]2(c4noc(=O)[nH]4)C[C@@H]2C)CC3)cc(C)c1F` (stereo partly drawn) [Compound 13] are 0.228 nM and 23400 ng·h/mL. Compound `Cc1cc(-n2nc3c(c2-n2ccn(-c4ccc5c(c4)oc(=O)n5C)c2=O)[C@H](C)N(C(=O)c2cc4cc(C5CCOCC5)ccc4n2[C@@]2(c4noc(=O)[nH]4)C[C@@H]2C)CC3)cc(C)c1F` [Compound 77] registered an EC50 in data set [3] of 0.022 nM.
